The values that follow come from patent US8178658B2 (Dow AgroSciences, LLC, priority 2008, dated 2012).

The test system of test [1] is beet armyworm (BAW; Spodoptera exigua: Lepidoptera). Briefly: 128-well diet tray assay on beet armyworm (BAW 50). The test is classed as in vivo. As for the experimental part: (§1) Bioassays on beet armyworm (BAW; Spodoptera exigua: Lepidoptera) were conducted using either a 96-well microtiter plate-based high throughput (HTS) bioassay or a 128-well diet tray assay. The HTS assay is a based on a modification of Lewer et al. J. Nat. Prod. 2006, 69, 1506. BAW eggs of were placed on top of artificial diet (100 μl) in each well of 96-well microtiter plate. The diet was pretreated with test compounds (12 μg dissolved in 30 μL of DMSO-acetone-water mixture) layered on top of the diet using a liquid handling system and then allowed to dry for several hours. Infested plates were then covered with a layer of sterile cotton batting and the plate lid, and then held in the dark at 29° C. Mortality was recoded at 6 d post-treatment. Each plate had six replicates. The percent mortality was calculated from the average of the six replicates. In the case of the 128-well diet assay, three to five second instar BAW larvae were placed in each well (3 mL) of the diet tray that had been previously filled with 1 mL of artificial diet to which 50 μg/cm^2 of the test compound (dissolved in 50 μL of 90:10 acetone-water mixture) had been applied (to each of eight wells) and then allowed to dry. Trays were covered with a clear self-adhesive cover, and held at 25° C., 14:10 light-dark for six days. Percent mortality was recorded for the larvae in each well; activity in the eight wells was then averaged. In Table 7, under the BAW HTS or BAW 50 heading, an “A” means that the compound was tested and at least 50 percent mortality was observed whereas, “B” means that either (1) the compound was tested and less than 50 percent mortality was observed or (2) the compound was not tested.

The test system is the same in test [2]. The experiment in a line: 96-well microtiter plate-based high throughput (HTS) diet bioassay on beet armyworm (BAW HTS). The test is classed as in vivo. Particulars: BAW eggs, 12 μg test compound per well, mortality at 6 d post-treatment, mortality class. As for the experimental part:
as §1

[3] abbreviates: 128-well diet tray assay; 50 μg/cm^2 of test compound on diet; second instar BAW larvae; mortality class.
[4] abbreviates: 96-well microtiter plate HTS diet assay.
The mark [5] stands for this setting: 128-well diet tray assay, second instar BAW larvae, 50 μg/cm^2 of test compound on diet; mortality class.

For the compound `CCC(O)c1ccc(-n2ccc(-c3ccc(C=NOC4OC(C)C(OC)C(OC)C4OC)cc3)n2)cc1` (mixture of isomers) [Compound 5], in test [1] (setting [3]), the “BAW 50 ug/cm2” value is “A (the compound was tested and at least 50 percent mortality was observed)”. In addition, the “BAW HTS” value is “B (either (1) the compound was tested and less than 50 percent mortality was observed or (2) the compound was not tested)” in test [2] (96-well HTS diet bioassay); “B (either (1) the compound was tested and less than 50 percent mortality was observed or (2) the compound was not tested)” in test [2] (setting [4]).
Take `CCOC(=O)C1CC(c2ccc(C=NOC3OC(C)C(OC)C(OC)C3OC)cc2)=NN1c1ccc(OC(F)(F)F)cc1` (mixture of isomers) [Compound 13]: the “BAW 50 ug/cm2” value in test [1] (setting [3]) is “A (the compound was tested and at least 50 percent mortality was observed)”. In addition, the “BAW HTS” value in test [2] (96-well HTS diet bioassay) is “B (either (1) the compound was tested and less than 50 percent mortality was observed or (2) the compound was not tested)”; in test [2] (setting [4]) it was “B (either (1) the compound was tested and less than 50 percent mortality was observed or (2) the compound was not tested)”.
Take `COC1C(C)OC(ON=Cc2ccc(C3=NN(c4ccc(OC(F)(F)F)cc4)C(C(=O)OCC(C)C)C3)cc2)C(OC)C1OC` (mixture of isomers) [Compound 14]: in test [1] (setting [3]), the “BAW 50 ug/cm2” value is “B (either (1) the compound was tested and less than 50 percent mortality was observed or (2) the compound was not tested)”. For the same compound, the “BAW HTS” value in test [2] (96-well HTS diet bioassay) was “B (either (1) the compound was tested and less than 50 percent mortality was observed or (2) the compound was not tested)”; in test [2] (setting [4]), “B (either (1) the compound was tested and less than 50 percent mortality was observed or (2) the compound was not tested)”.
Consider `CCOC1C(OC)C(C)OC(ON=Cc2ccc(C3NC(c4ccc(OC(F)(F)F)cc4)=NO3)cc2)C1OC` (mixture of isomers) [Compound 130], for which the “BAW 50 ug/cm2” value in test [1] (setting [3]) was “A (the compound was tested and at least 50 percent mortality was observed)”. The “BAW HTS” value was “A (the compound was tested and at least 50 percent mortality was observed)” in test [2] (96-well HTS diet bioassay); “A (the compound was tested and at least 50 percent mortality was observed)” in test [2] (setting [4]).
With `CCOC1C(OC)C(C)OC(OC(=O)Nc2ccc(C3=NN(c4ccc(OC(F)(F)C(F)(F)F)cc4)CC3CN(C)C)cc2)C1OC` (mixture of isomers) [Compound 180], the “BAW 50 ug/cm2” value in test [1] (setting [3]) was “A (the compound was tested and at least 50 percent mortality was observed)”. Also, the “BAW HTS” value in test [2] (96-well HTS diet assay) is “B (either (1) the compound was tested and less than 50 percent mortality was observed or (2) the compound was not tested)”; in test [2] (setting [4]), “B (either (1) the compound was tested and less than 50 percent mortality was observed or (2) the compound was not tested)”.
For `COC1CC(OC(=O)Nc2ccc(-c3ncn(-c4ccc(OC(F)(F)C(F)(F)F)cc4)n3)cc2)OC(C)C1O` (mixture of isomers) [Compound 244], the “BAW 50 ug/cm2” value in test [1] (setting [3]) is “A (the compound was tested and at least 50 percent mortality was observed)”. Besides, the “BAW HTS” value is “B (either (1) the compound was tested and less than 50 percent mortality was observed or (2) the compound was not tested)” in test [2] (96-well HTS diet assay); “B (either (1) the compound was tested and less than 50 percent mortality was observed or (2) the compound was not tested)” in test [2] (setting [4]).
With `CCOC1C(OC)C(C)OC(OC(=O)Nc2ccc(C3=NC(c4ccc(OC(F)(F)F)cc4)CO3)cc2)C1OC` (mixture of isomers) [Compound 247], in test [1] (setting [3]), the “BAW 50 ug/cm2” value is “A (the compound was tested and at least 50 percent mortality was observed)”. The “BAW HTS” value is “B (either (1) the compound was tested and less than 50 percent mortality was observed or (2) the compound was not tested)” in test [2] (96-well HTS diet assay); “B (either (1) the compound was tested and less than 50 percent mortality was observed or (2) the compound was not tested)” in test [2] (setting [4]).
With `COc1cccc(-c2cnn(-c3ccc(C=NOC4OC(C)C(OC)C(OC)C4OC)cc3)c2)c1` (stereo not drawn) [Compound 1], the “BAW 50 ug/cm2” value in test [1] (setting [5]) is “B (either (1) the compound was tested and less than 50 percent mortality was observed or (2) the compound was not tested)”. Moreover, the “BAW HTS” value in test [2] (96-well HTS diet assay) is “A (the compound was tested and at least 50 percent mortality was observed)”; in test [2] (96-well HTS diet bioassay), “A (the compound was tested and at least 50 percent mortality was observed)”.
In the case of `COC1C(C)OC(ON=Cc2ccc(-n3ccc(-c4ccc(Cl)cc4)n3)cc2)C(OC)C1OC` (stereo not drawn) [Compound 2], in test [1] (setting [5]), the “BAW 50 ug/cm2” value is “B (either (1) the compound was tested and less than 50 percent mortality was observed or (2) the compound was not tested)”. Further, the “BAW HTS” value in test [2] (96-well HTS diet assay) is “A (the compound was tested and at least 50 percent mortality was observed)”; in test [2] (96-well HTS diet bioassay), “A (the compound was tested and at least 50 percent mortality was observed)”.
As to `COC1C(C)OC(ON=Cc2ccc(-n3ccc(-c4ccccn4)n3)cc2)C(OC)C1OC` (stereo not drawn) [Compound 3], the “BAW 50 ug/cm2” value in test [1] (setting [5]) is “B (either (1) the compound was tested and less than 50 percent mortality was observed or (2) the compound was not tested)”. Also, the “BAW HTS” value in test [2] (96-well HTS diet assay) is “A (the compound was tested and at least 50 percent mortality was observed)”; in test [2] (96-well HTS diet bioassay), “A (the compound was tested and at least 50 percent mortality was observed)”.
With `COC1C(C)OC(ON=Cc2ccc(-n3ccc(-c4cccs4)n3)cc2)C(OC)C1OC` (stereo not drawn) [Compound 4], the “BAW 50 ug/cm2” value in test [1] (setting [5]) was “B (either (1) the compound was tested and less than 50 percent mortality was observed or (2) the compound was not tested)”. Besides, the “BAW HTS” value in test [2] (96-well HTS diet assay) is “B (either (1) the compound was tested and less than 50 percent mortality was observed or (2) the compound was not tested)”; in test [2] (96-well HTS diet bioassay), “B (either (1) the compound was tested and less than 50 percent mortality was observed or (2) the compound was not tested)”.
As to `COC1C(C)OC(ON=Cc2ccc(-c3ccn(-c4ccc(SC(F)(F)F)cc4)n3)cc2)C(OC)C1OC` (stereo not drawn) [Compound 6], in test [1] (setting [3]), the “BAW 50 ug/cm2” value was “A (the compound was tested and at least 50 percent mortality was observed)”. Also, the “BAW HTS” value in test [2] (96-well HTS diet bioassay) was “B (either (1) the compound was tested and less than 50 percent mortality was observed or (2) the compound was not tested)”; in test [2] (setting [4]) it was “B (either (1) the compound was tested and less than 50 percent mortality was observed or (2) the compound was not tested)”.
In the case of `COC1C(C)OC(ON=Cc2ccc(-c3ccn(-c4ccc(OC(F)(F)C(F)F)cc4)n3)cc2)C(OC)C1OC` (stereo not drawn) [Compound 7], in test [1] (setting [3]), the “BAW 50 ug/cm2” value was “A (the compound was tested and at least 50 percent mortality was observed)”. The “BAW HTS” value in test [2] (96-well HTS diet bioassay) was “B (either (1) the compound was tested and less than 50 percent mortality was observed or (2) the compound was not tested)”; in test [2] (setting [4]), “B (either (1) the compound was tested and less than 50 percent mortality was observed or (2) the compound was not tested)”.
Regarding `COC1C(C)OC(ON=Cc2ccc(-c3ccn(-c4ccc(OC(F)(F)C(F)(F)F)cc4)n3)cc2)C(OC)C1OC` (stereo not drawn) [Compound 8], in test [1] (setting [3]), the “BAW 50 ug/cm2” value is “A (the compound was tested and at least 50 percent mortality was observed)”. The “BAW HTS” value in test [2] (96-well HTS diet bioassay) was “B (either (1) the compound was tested and less than 50 percent mortality was observed or (2) the compound was not tested)”; in test [2] (setting [4]), “B (either (1) the compound was tested and less than 50 percent mortality was observed or (2) the compound was not tested)”.
For `COC1C(C)OC(ON=Cc2ccc(-c3ccn(-c4ccc(SC)cc4)n3)cc2)C(OC)C1OC` (stereo not drawn) [Compound 9], the “BAW 50 ug/cm2” value in test [1] (setting [3]) was “A (the compound was tested and at least 50 percent mortality was observed)”. Also, the “BAW HTS” value was “B (either (1) the compound was tested and less than 50 percent mortality was observed or (2) the compound was not tested)” in test [2] (96-well HTS diet bioassay); “B (either (1) the compound was tested and less than 50 percent mortality was observed or (2) the compound was not tested)” in test [2] (setting [4]).
Consider `COC1C(C)OC(ON=Cc2ccc(-c3ccn(-c4ccc(C(C)C)cc4)n3)cc2)C(OC)C1OC` (stereo not drawn) [Compound 10], for which the “BAW 50 ug/cm2” value in test [1] (setting [3]) is “A (the compound was tested and at least 50 percent mortality was observed)”. The “BAW HTS” value in test [2] (96-well HTS diet bioassay) was “B (either (1) the compound was tested and less than 50 percent mortality was observed or (2) the compound was not tested)”; in test [2] (setting [4]) it was “B (either (1) the compound was tested and less than 50 percent mortality was observed or (2) the compound was not tested)”.
For the compound `COC1C(C)OC(ON=Cc2ccc(-c3ccn(-c4ccc(C(C)(C)C)cc4)n3)cc2)C(OC)C1OC` (stereo not drawn) [Compound 11], the “BAW 50 ug/cm2” value in test [1] (setting [3]) is “A (the compound was tested and at least 50 percent mortality was observed)”. Moreover, the “BAW HTS” value in test [2] (96-well HTS diet bioassay) is “B (either (1) the compound was tested and less than 50 percent mortality was observed or (2) the compound was not tested)”; in test [2] (setting [4]) it was “B (either (1) the compound was tested and less than 50 percent mortality was observed or (2) the compound was not tested)”.
